Results published in patent US20060004095A1, “Use of acetyl L-carnitine for the preparation of a medicine for the treatment of neuropathic pain in diabetic patients” (priority 2004, published 2006).

How the values were obtained:
[1] = system: patients with type 2 diabetes not on insulin treatment; experiment: Double-blind placebo-controlled clinical trials in diabetic peripheral neuropathy, VAS pain assessment; population not on insulin; assay type: in vivo, human; conditions: active only at the higher dose (3 g/day)
Procedure: (§1) Two double-blind placebo-controlled clinical trials, identical in their experimental design, were conducted in patients with diagnoses of diabetic peripheral neuropathy selected according to the criteria established in the San Antonio, Tex. conference (Diabetes 37:1000-1004, 1988).
(§2) Acetyl L-carnitine was administered orally at doses of 1.5 g/day and 3.0 g/day for continuously for 52 weeks.
(§3) One objective of the studies consisted in the possible modification of the Visual Analogue Scale (VAS) (Scott J. Huskisson EC. Graphic representation of pain. Pain 1976;2:175-184) in the subjective assessment of pain symptoms and the main sensorimotor clinical parameters.

[2] = system: patients with type 2 diabetes on insulin treatment; experiment: Double-blind placebo-controlled clinical trials in diabetic peripheral neuropathy, VAS pain assessment; population on insulin; assay type: in vivo, human; conditions: even at the higher dose
Procedure: as §1, §2, §3
The second population comprised patients with type 2 diabetes treated with insulin. Here, too, the population included a placebo group (Group 4) matching up to the same inclusion criteria as the patients treated with acetyl L-carnitine (on insulin treatment).

[3] = system: type I and II diabetics with symmetrical distal polyneuropathy or multineuropathy; conditions: patients treated with acetyl L-carnitine out of 333 recruited; cited from earlier work

For `CC(=O)O[C@H](CC(=O)[O-])C[N+](C)(C)C` [Acetyl L-carnitine, acetyl L-carnitine], the “activity compared to the placebo group at the end of treatment” value [1] is listed as “active in a dose-related manner”, the “activity compared to the control group” value [2] is listed as “no statistically significant difference in activity” and the “patients presenting an improvement in pain symptoms” value [3] is listed as 39%.
